Activity calls are given as the source filed them. No cut-off for these calls is given here. A value given as a limit tells only on which side of the number the result lay.

Series [1] addresses T1, NEDD8 activating enzyme (Homo sapiens, UniProt Q8TBC4).
T1 sequence (Q8TBC4 whole entry): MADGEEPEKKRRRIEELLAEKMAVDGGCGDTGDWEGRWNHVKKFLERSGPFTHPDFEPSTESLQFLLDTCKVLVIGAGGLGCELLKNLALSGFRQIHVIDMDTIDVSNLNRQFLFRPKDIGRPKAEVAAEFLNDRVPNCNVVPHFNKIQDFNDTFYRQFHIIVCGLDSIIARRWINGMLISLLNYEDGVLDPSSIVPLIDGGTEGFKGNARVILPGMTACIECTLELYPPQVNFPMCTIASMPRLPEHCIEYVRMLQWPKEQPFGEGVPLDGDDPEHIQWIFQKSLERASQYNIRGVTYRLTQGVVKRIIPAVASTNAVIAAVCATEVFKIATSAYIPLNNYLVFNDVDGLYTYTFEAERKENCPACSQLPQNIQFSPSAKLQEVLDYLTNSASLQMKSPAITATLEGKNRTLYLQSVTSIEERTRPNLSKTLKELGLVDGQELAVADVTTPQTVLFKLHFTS
T1 sequence (Q13564 whole entry): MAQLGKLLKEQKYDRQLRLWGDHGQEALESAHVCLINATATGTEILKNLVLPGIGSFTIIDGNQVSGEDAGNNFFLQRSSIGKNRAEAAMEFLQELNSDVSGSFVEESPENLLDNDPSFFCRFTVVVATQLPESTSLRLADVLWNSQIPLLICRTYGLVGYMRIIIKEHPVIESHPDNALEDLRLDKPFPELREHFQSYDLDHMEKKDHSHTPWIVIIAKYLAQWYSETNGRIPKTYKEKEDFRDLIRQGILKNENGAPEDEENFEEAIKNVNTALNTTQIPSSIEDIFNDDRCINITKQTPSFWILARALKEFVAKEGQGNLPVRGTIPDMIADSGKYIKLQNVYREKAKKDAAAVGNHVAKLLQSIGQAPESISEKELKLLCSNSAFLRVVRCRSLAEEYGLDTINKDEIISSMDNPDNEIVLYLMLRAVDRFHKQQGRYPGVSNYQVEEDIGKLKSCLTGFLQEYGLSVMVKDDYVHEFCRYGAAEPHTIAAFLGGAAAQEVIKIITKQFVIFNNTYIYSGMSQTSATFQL
Nature of the series: Inhibition of recombinant human NAE using GST-tagged Ubc12 and Flag-tagged Nedd8 incubated for 105 mins by HTRF assay. The series is classed as protein-complex assay. In general terms: Time-resolved FRET reads energy transfer from a long-lived donor to a nearby acceptor.

Series [2] relates to Mus musculus. Nature of the series: Inhibition of NAE in female Ncr nude mouse bearing HCT116 tumor xenografts assessed as increase in Nedd8-Cullin levels at 30 mg/kg, sc dosed as single administration measured up to 24 hrs post dose. Format: functional, organism-based.
Series [3] relates to Mus musculus. Nature of the series: Inhibition of NAE in female Ncr nude mouse bearing HCT116 tumor xenografts assessed as increase in Nedd8-Cullin levels at 10 mg/kg, sc dosed as single administration measured up to 24 hrs post dose. Format: functional, organism-based.
Series [4] is described as follows: AUC (last) in plasma of female Ncr nude mouse bearing HCT116 tumor xenografts at 30 mg/kg, sc dosed as single administration measured up to 24 hrs post dose. Format: ADME, organism-based. The arrangement: dose 30 mg/kg, time 0 - last, route subcutaneous.
Series [5] is described as follows: Cmax in plasma of female Ncr nude mouse bearing HCT116 tumor xenografts at 30 mg/kg, sc dosed as single administration measured up to 24 hrs post dose. Format: ADME, organism-based. Also on record: dose 30 mg/kg, route subcutaneous.
Series [6] in a line: Cmax in plasma of female Ncr nude mouse bearing HCT116 tumor xenografts at 10 mg/kg, sc dosed as single administration measured up to 24 hrs post dose. The series is classed as ADME, organism-based. Also on record: dose 10 mg/kg, route subcutaneous.
Series [7] in a line: AUC (last) in plasma of female Ncr nude mouse bearing HCT116 tumor xenografts at 10 mg/kg, sc dosed as single administration measured up to 24 hrs post dose. The series is classed as ADME, organism-based. Also on record: dose 10 mg/kg, time 0 - last, route subcutaneous.

One may read the IC50 as the point on the concentration scale where inhibition reaches its midpoint. For `NS(=O)(=O)OC[C@@H]1C[C@@H](Oc2cc(N[C@H]3CCc4ccccc43)ncn2)C[C@@H]1O`, the IC50 in series [1] is greater than 10000 nM.

The term AUC(0-t) denotes exposure summed from dosing to a finite time, without extrapolation to infinity. Low readings indicate less exposure, high ones more exposure. As a reminder, the Cmax is the peak of the concentration-time curve. In the case of `CO[C@H]1Cc2cc(Cl)ccc2C1Nc1cc(O[C@@H]2CC(COS(N)(=O)=O)[C@@H](O)C2)ncn1` (single isomer, unassigned), the inhibition result in series [2] and in series [3] was “Active” each time. Moreover, the figures for the AUC(0-t) at 24 h in series [4] and in series [7] were 54.8 µM·h and 24.5 µM·h, respectively. In addition, the figures for the Cmax in series [5] and in series [6] were 24.2 µM and 10.4 µM, respectively.

`CO[C@H]1Cc2ccccc2[C@H]1Nc1cc(O[C@@H]2C[C@@H](COS(N)(=O)=O)[C@@H](O)C2)ncn1`: in series [2], the inhibition entry was “Active”. Besides, the area under the curve AUC(0-t) at 24 h in series [4] worked out at 26.3 µM·h. Besides, the Cmax in series [5] was found to be 27.1 µM.

For `CN(C)C(=O)[C@H]1Cc2ccccc2[C@H]1Nc1cc(O[C@@H]2C[C@@H](COS(N)(=O)=O)[C@@H](O)C2)ncn1`, the IC50 in series [1] lay in the range of 500 to 10000 nM.

For the compound `CO[C@H]1CCc2ccccc2C1Nc1cc(O[C@H]2CC(O)[C@H](COS(N)(=O)=O)C2)ncn1` (single isomer, unassigned), in series [1], the IC50 is no more than 500 nM.

Consider `COc1ccccc1-c1nc2c(N[C@@H]3C[C@@H](COS(N)(=O)=O)[C@@H](O)C3)ncnc2[nH]1`, for which the IC50 in series [1] is no more than 500 nM.

For `NS(=O)(=O)OC[C@H]1C[C@@H](Nc2ncnc(N[C@H]3CCc4ccccc43)n2)[C@H](O)[C@@H]1O`, the half-maximal inhibitory concentration (IC50) in series [1] was no more than 500 nM.

With `NS(=O)(=O)OC[C@@H]1C[C@@H](Nc2ncnc3[nH]c(-c4ccc(Cl)cc4)nc23)C[C@@H]1O`, in series [1], the IC50 was no more than 500 nM.

Regarding `COc1cccc(-c2nc3c(N[C@@H]4C[C@@H](COS(N)(=O)=O)[C@@H](O)C4)ncnc3[nH]2)c1OC`, in series [1], the IC50 is no more than 500 nM.

For the compound `Cc1c(N[C@H]2CCc3ccccc32)ncnc1O[C@@H]1C[C@@H](COS(N)(=O)=O)[C@@H](O)C1`, the half-inhibitory concentration (IC50) in series [1] was no more than 500 nM.

These data come from ChEMBL document CHEMBL4476882, “Inhibitors of nedd8-activating enzyme” (2013).
